Molecules are shown by their SMILES. Where “and” joins values, the source holds several entries; their conditions need not be identical. Equal entries are not always repeated. Inconclusive results and toxic doses are left out.

The test system of this assay is P388 leukemia ip, CD2F1 mice, survival T/C. The experiment in a line: NCI In Vivo Anticancer Drug Screen. Data for tumor model P388 Leukemia (intraperitoneal) in CD2F1 (CDF1) mice. The note with it: endpoint: median survival time, higher = longer survival. In outline: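 Mice carrying the transplanted tumor received test compound or vehicle. Survival was recorded in each group, and the value is the treated-group measurement divided by that of the vehicle-treated control group.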

Where [1] appears, read: dose: 50.0 mg/kg/injection, schedule: Q01DX005 (ip), vehicle: saline with Tween-80.
Setting [2] is: dose: 200.0 mg/kg/injection, schedule: Q01DX005 (ip), vehicle: saline with Tween-80.
Setting [3] is: dose: 50.0 mg/kg/injection, schedule: Q01DX005 (ip), vehicle: saline.
Where [4] appears, read: dose: 100.0 mg/kg/injection, schedule: Q01DX005 (ip), vehicle: saline.
Setting [5] is: dose: 200.0 mg/kg/injection, schedule: Q01DX005 (ip), vehicle: saline.
Where [6] appears, read: dose: 12.5 mg/kg/injection, schedule: Q01DX009 (ip), vehicle: Klucel (hydroxypropylcellulose) (HPC).
Where [7] appears, read: dose: 25.0 mg/kg/injection, schedule: Q01DX009 (ip), vehicle: Klucel (hydroxypropylcellulose) (HPC).
Where [8] appears, read: dose: 50.0 mg/kg/injection, schedule: Q01DX009 (ip), vehicle: Klucel (hydroxypropylcellulose) (HPC).
[9] abbreviates: dose: 100.0 mg/kg/injection, schedule: Q01DX009 (ip), vehicle: Klucel (hydroxypropylcellulose) (HPC).
Where [10] appears, read: dose: 200.0 mg/kg/injection, schedule: Q01DX009 (ip), vehicle: Klucel (hydroxypropylcellulose) (HPC).
Where [11] appears, read: dose: 60.0 mg/kg/injection, schedule: Q01DX005 (ip), vehicle: saline with Tween-80.
[12] abbreviates: dose: 120.0 mg/kg/injection, schedule: Q01DX005 (ip), vehicle: saline with Tween-80.
[13] abbreviates: dose: 240.0 mg/kg/injection, schedule: Q01DX005 (ip), vehicle: saline with Tween-80.
The mark [14] stands for this setting: dose: 50.0 mg/kg/injection, schedule: Q01DX005 (ip), vehicle: Klucel (hydroxypropylcellulose) (HPC).
Setting [15] is: dose: 100.0 mg/kg/injection, schedule: Q01DX005 (ip), vehicle: Klucel (hydroxypropylcellulose) (HPC).

For the molecule `C[C@]12CC[C@H](O)C[C@@H]1CC[C@@H]1[C@@H]2CC[C@]2(C)c3nc4ccccc4c(C(=O)O)c3C[C@@H]12`, the T/C (dose: 12.5 mg/kg/injection, schedule: Q01DX005 (ip), vehicle: saline with Tween-80) was 101 % of control; the T/C (dose: 25.0 mg/kg/injection, schedule: Q01DX005 (ip), vehicle: saline with Tween-80) is 100 % of control; the T/C under setting [1] was 86 % of control and 94 % of control; the T/C under setting [2] was 93 % of control.

With `CC(=O)NCCSSCCCCS(=O)O`, the T/C is 106 % of control and 115 % of control under setting [3]; 118 % of control and 121 % of control under setting [4]; 124 % of control under setting [5].

`COc1cc2c(cc1OC)C1c3cc(OC)c(OC)cc3CCN1CC2`: the T/C (dose: 3.13 mg/kg/injection, schedule: Q01DX009 (ip), vehicle: water) was 106 % of control; the T/C (dose: 6.25 mg/kg/injection, schedule: Q01DX009 (ip), vehicle: water) was 106 % of control; the T/C (dose: 12.5 mg/kg/injection, schedule: Q01DX009 (ip), vehicle: water) is 100 % of control; the T/C (dose: 25.0 mg/kg/injection, schedule: Q01DX009 (ip), vehicle: water) was 107 % of control.

Take `FC(F)(F)C1(C(F)(F)F)SC(C(F)(F)F)(C(F)(F)F)S1`: the T/C is, setting by setting: under setting [3], 104 % of control; under setting [4], 107 % of control; under setting [5], 104 % of control.

On to `CC(Cc1ccccc1)NC(=O)c1ccncc1` (stereo not drawn), for which the T/C runs as follows: under setting [1], 103 % of control; (dose: 100.0 mg/kg/injection, schedule: Q01DX005 (ip), vehicle: saline with Tween-80) 102 % of control; under setting [2], 100 % of control.

On to `COc1ccccc1N1CCCSC1=Nc1ccccc1`, for which the T/C runs as follows: under setting [6], 105 % of control; under setting [7], 98 % of control; under setting [8], 90 % of control; under setting [9], 119 % of control; under setting [10], 90 % of control.

`CC(C)(C)C(=O)OCCN(CCOC(=O)C(C)(C)C)C(=O)COC(=O)C(C)(C)C`: the T/C is, setting by setting: (dose: 50.0 mg/kg/injection, schedule: Q01DX009 (ip), vehicle: saline with Tween-80) 96 % of control; (dose: 100.0 mg/kg/injection, schedule: Q01DX009 (ip), vehicle: saline with Tween-80) 94 % of control; (dose: 200.0 mg/kg/injection, schedule: Q01DX009 (ip), vehicle: saline with Tween-80) 100 % of control.

Regarding `CCCCOc1ccc(Nc2c(C(=O)O)cnc3cc4c(cc23)OCO4)cc1`, the T/C was 100 % of control (dose: 60.0 mg/kg/injection, schedule: Q01DX005 (ip), vehicle: Klucel (hydroxypropylcellulose) (HPC)); 91 % of control (dose: 120.0 mg/kg/injection, schedule: Q01DX005 (ip), vehicle: Klucel (hydroxypropylcellulose) (HPC)); 97 % of control (dose: 240.0 mg/kg/injection, schedule: Q01DX005 (ip), vehicle: Klucel (hydroxypropylcellulose) (HPC)).

Take `CC(O)c1cc2c(cc1Br)OCO2` (stereo not drawn): the T/C was 105 % of control (dose: 100.0 mg/kg/injection, schedule: Q01DX001 (ip), vehicle: Klucel (hydroxypropylcellulose) (HPC)); 104 % of control (dose: 200.0 mg/kg/injection, schedule: Q01DX001 (ip), vehicle: Klucel (hydroxypropylcellulose) (HPC)); 104 % of control (dose: 400.0 mg/kg/injection, schedule: Q01DX001 (ip), vehicle: Klucel (hydroxypropylcellulose) (HPC)).

For `NCCCn1[nH]c(=O)c2ncccc2c1=O`, the T/C reads like this: under setting [11], 110 % of control; under setting [12], 112 % of control; under setting [13], 102 % of control.

In the case of `CC(C)c1nnc(NC(=O)CSC(=S)N2CCOCC2)s1`, the T/C by setting is: under setting [11], 106 % of control; under setting [12], 98 % of control; under setting [13], 97 % of control.

On to `c1ccc2c(Nc3nccs3)c3ccccc3nc2c1`, for which the T/C by setting is: (dose: 12.5 mg/kg/injection, schedule: Q04DX002 (ip), vehicle: distilled water + Tween-80) 96 % of control; (dose: 25.0 mg/kg/injection, schedule: Q04DX002 (ip), vehicle: distilled water + Tween-80) 96 % of control; (dose: 50.0 mg/kg/injection, schedule: Q04DX002 (ip), vehicle: distilled water + Tween-80) 88 % of control; (dose: 100.0 mg/kg/injection, schedule: Q04DX002 (ip), vehicle: distilled water + Tween-80) 94 % of control; (dose: 200.0 mg/kg/injection, schedule: Q04DX002 (ip), vehicle: distilled water + Tween-80) 98 % of control; (dose: 400.0 mg/kg/injection, schedule: Q04DX002 (ip), vehicle: distilled water + Tween-80) 103 % of control.

For `CC(=O)c1cccc(NC(=O)Nc2nccs2)c1`, the T/C by setting is: under setting [7], 102 % of control; under setting [8], 110 % of control; under setting [9], 101 % of control; under setting [10], 105 % of control.

In the case of `Cc1nn(CCO)c2nc(N)nc(N)c12`, the T/C (dose: 100.0 mg/kg/injection, schedule: Q01DX001 (ip), vehicle: suspension in saline) is 104 % of control; the T/C (dose: 200.0 mg/kg/injection, schedule: Q01DX001 (ip), vehicle: suspension in saline) was 101 % of control; the T/C (dose: 400.0 mg/kg/injection, schedule: Q01DX001 (ip), vehicle: suspension in saline) was 100 % of control.

Take `CC(C)CNC1=CC(=S)NC(C)(C)C1`: the T/C under setting [14] is 99 % of control; the T/C under setting [15] was 101 % of control; the T/C (dose: 200.0 mg/kg/injection, schedule: Q01DX005 (ip), vehicle: Klucel (hydroxypropylcellulose) (HPC)) was 94 % of control.

For `CCCC(=O)Nc1ccn(C2OC(CO)C(O)C2O)c(=O)n1` (stereo not drawn), the T/C is, setting by setting: (dose: 25.0 mg/kg/injection, schedule: Q01DX009 (ip), vehicle: saline) 99 % of control; (dose: 50.0 mg/kg/injection, schedule: Q01DX009 (ip), vehicle: saline) 96 % of control; (dose: 100.0 mg/kg/injection, schedule: Q01DX009 (ip), vehicle: saline) 94 % of control; (dose: 200.0 mg/kg/injection, schedule: Q01DX009 (ip), vehicle: saline) 96 % of control.

As to `OC1(c2ccc(C3(O)C(c4ccccc4)=C(c4ccccc4)C(c4ccccc4)=C3c3ccccc3)cc2)C(c2ccccc2)=C(c2ccccc2)C(c2ccccc2)=C1c1ccccc1`, the T/C was 105 % of control under setting [8], 86 % of control under setting [9] and 90 % of control under setting [10].

With `COC(=O)CC1(C(=O)OC)C2=C(C(=O)c3ccccc3C2=O)N2CCCC21` (stereo not drawn), the T/C under setting [6] is 99 % of control, the T/C under setting [7] was 100 % of control, the T/C under setting [8] was 106 % of control and the T/C under setting [9] is 103 % of control.

As to `CCC1(c2ccc(N)cc2)CCC(=O)NC1=O` (stereo not drawn), the T/C reads like this: under setting [14], 91 % of control; under setting [15], 100 % of control.

As to `O=[N+]([O-])c1cc(C(Nc2nncs2)Nc2nncs2)ccc1Cl`, the T/C (dose: 30.0 mg/kg/injection, schedule: Q01DX005 (ip), vehicle: saline with Tween-80) is 91 % of control; the T/C under setting [11] was 109 % of control and 87 % of control; the T/C under setting [13] was 150 % of control.

Regarding `O=C(/C=N/O)Nc1ccccc1`, the T/C reads like this: under setting [6], 100 % of control and 107 % of control; under setting [7], 99 % of control and 100 % of control and 106 % of control; under setting [8], 103 % of control and 92 % of control; under setting [9], 101 % of control and 109 % of control and 114 % of control.

(Values after PubChem BioAssay AID330 (DTP/NCI, 2004).)
